{"source": "paper PMC12224939", "about": "“Trypstatin as a Novel TMPRSS2 Inhibitor with Broad‐Spectrum Efficacy against Corona and Influenza Viruses” (Advanced Science, 2025)", "key": {"[1]": {"test_system": "lentiviral pseudoparticles harboring the MERS-CoV spike", "assay": "microbe, parasite or virus in culture", "details": "Middle East respiratory syndrome-related coronavirus"}, "[2]": {"test_system": "lentiviral pseudoparticles harboring the SARS-CoV-1 spike", "assay": "microbe, parasite or virus in culture", "details": "Severe acute respiratory syndrome coronavirus, Caco-2, read-out: anti-viral IC50 (±SEM), SARS-CoV-1 pp"}}, "note": "Where a name gives a salt, the structure may show the parent alone. Read-outs that look alike come from different tables or passages of the source."}
{"smiles": "CN(C)C(=O)COC(=O)Cc1ccc(OC(=O)c2ccc(NC(=N)N)cc2)cc1", "note": "[Camostat mesylate]", "values": [{"measurement": "IC50", "setting": "[1]; Caco-2, 48 h, read-out: IC50, MERS-CoV spike pseudoparticles", "result": 50, "unit": "nM"}, {"measurement": "IC50", "setting": "[1]; Caco-2, read-out: anti-viral IC50 (±SEM), MERS-CoV pp", "result": "49.9 ± 19", "unit": "nM"}, {"measurement": "IC50", "setting": "[2]", "result": "71.1 ± 8", "unit": "nM"}]}
